According to ChEMBL document CHEMBL2150986, “Synthesis and biological evaluation of 1-benzylidene-3,4-dihydronaphthalen-2-one as a new class of microtubule-targeting agents” (J Med Chem, 2012):

How the values were obtained:
Mus musculus [1] = test: Toxicity in ICR mouse assessed as mortality at 50 mg/kg, ip administered on day 1; format: organism-based; parameters: dose 50 mg/kg, route intraperitoneal; settings: in vivo
CCRF-CEM = test: Cytotoxicity against human CEM cells after 72 hrs by MTT assay; format: functional, cell-based
Mus musculus [2] = test: Toxicity in nude BALB/c mouse xenografted with human HT-29 cells assessed as mortality at 30 mg/kg, ip qd after 21 days; format: organism-based; parameters: dose 30 mg/kg, route intraperitoneal; settings: in vivo, 504 h
Mus musculus [3] = test: Toxicity in nude BALB/c mouse xenografted with human HT-29 cells assessed as mortality at 50 mg/kg, ip qd after 21 days; format: organism-based; parameters: dose 50 mg/kg, route intraperitoneal; settings: in vivo, 504 h
HT-29 [4] = test: Antitumor activity against human HT-29 cells xenografted in nude BALB/c mouse assessed as decrease in tumor volume at 30 mg/kg, ip qd measured on day 21 relative to vehicle-treated control; format: functional; settings: route intraperitoneal
HT-29 [5] = test: Antitumor activity against human HT-29 cells xenografted in nude BALB/c mouse assessed as decrease in tumor volume at 50 mg/kg, ip qd measured on day 21 relative to vehicle-treated control; format: functional; settings: route intraperitoneal
Mus musculus [6] = test: Toxicity in nude BALB/c mouse xenografted with human HT-29 cells assessed as body weight change at 30 mg/kg, ip qd after 21 days (reference value: 2.7 g); format: organism-based; parameters: dose 30 mg/kg, route intraperitoneal; settings: in vivo, 504 h
Mus musculus [7] = test: Toxicity in nude BALB/c mouse xenografted with human HT-29 cells assessed as body weight change at 50 mg/kg, ip qd after 21 days (reference value: 2.7 g); format: organism-based; parameters: dose 50 mg/kg, route intraperitoneal; settings: in vivo, 504 h
Mus musculus [8] = test: Toxicity in nude BALB/c mouse xenografted with human HT-29 cells assessed as effect on WBC count at 30 mg/kg, ip qd after 21 days (reference value: 25.38 +/- 0.22 x 10^3 mm'-3); format: organism-based; parameters: dose 30 mg/kg, route intraperitoneal; settings: in vivo, 504 h
Mus musculus [9] = test: Toxicity in nude BALB/c mouse xenografted with human HT-29 cells assessed as effect on WBC count at 50 mg/kg, ip qd after 21 days (reference value: 25.38 +/- 0.22 x 10^3 mm'-3); format: organism-based; parameters: dose 50 mg/kg, route intraperitoneal; settings: in vivo, 504 h
Mus musculus [10] = test: Toxicity in nude BALB/c mouse xenografted with human HT-29 cells assessed as effect on lymphocyte count at 30 mg/kg, ip qd after 21 day (reference value: 15.88 +/- 0.41 x 10^3 mm'-3); format: organism-based; parameters: dose 30 mg/kg, route intraperitoneal; settings: in vivo, 504 h
Mus musculus [11] = test: Toxicity in nude BALB/c mouse xenografted with human HT-29 cells assessed as effect on lymphocyte count at 50 mg/kg, ip qd after 21 days (reference value: 15.88 +/- 0.41 x 10^3 mm'-3); format: organism-based; parameters: dose 50 mg/kg, route intraperitoneal; settings: in vivo, 504 h
Mus musculus [12] = test: Toxicity in nude BALB/c mouse xenografted with human HT-29 cells assessed as effect on platelet count at 30 mg/kg, ip qd after 21 days (reference value: 1509 +/- 34 x 10^3 mm'-3); format: organism-based; parameters: dose 30 mg/kg, route intraperitoneal; settings: in vivo, 504 h
Mus musculus [13] = test: Toxicity in nude BALB/c mouse xenografted with human HT-29 cells assessed as effect on platelet count at 50 mg/kg, ip qd after 21 days (reference value: 1509 +/- 34 x 10^3 mm'-3); format: organism-based; parameters: dose 50 mg/kg, route intraperitoneal; settings: in vivo, 504 h
Mus musculus [14] = test: Toxicity in nude BALB/c mouse xenografted with human HT-29 cells assessed as effect on ALT level at 30 mg/kg, ip qd after 21 days (reference value: 28 +/- 0.4 IU/L); format: organism-based; parameters: dose 30 mg/kg, route intraperitoneal; settings: in vivo, 504 h
Mus musculus [15] = test: Toxicity in nude BALB/c mouse xenografted with human HT-29 cells assessed as effect on ALT level at 50 mg/kg, ip qd after 21 days (reference value: 28 +/- 0.4 IU/L); format: organism-based; parameters: dose 50 mg/kg, route intraperitoneal; settings: in vivo, 504 h
Mus musculus [16] = test: Toxicity in nude BALB/c mouse xenografted with human HT-29 cells assessed as effect on ALP level at 30 mg/kg, ip qd after 21 days (reference value: 107.6 +/- 0.8 IU/L); format: organism-based; parameters: dose 30 mg/kg, route intraperitoneal; settings: in vivo, 504 h
Mus musculus [17] = test: Toxicity in nude BALB/c mouse xenografted with human HT-29 cells assessed as effect on ALP level at 50 mg/kg, ip qd after 21 days (reference value: 107.6 +/- 0.8 IU/L); format: organism-based; parameters: dose 50 mg/kg, route intraperitoneal; settings: in vivo, 504 h
Mus musculus [18] = test: Toxicity in nude BALB/c mouse xenografted with human HT-29 cells assessed as change in kidney weight at 50 mg/kg, ip qd after 21 days relative to vehicle-treated control; format: organism-based; parameters: dose 50 mg/kg, route intraperitoneal; settings: in vivo, 504 h
Mus musculus [19] = test: Toxicity in nude BALB/c mouse xenografted with human HT-29 cells assessed as change in liver weight at 50 mg/kg, ip qd after 21 days relative to vehicle-treated control; format: organism-based; parameters: dose 50 mg/kg, route intraperitoneal; settings: in vivo, 504 h
Mus musculus [20] = test: Toxicity in nude BALB/c mouse xenografted with human HT-29 cells assessed as change in spleen weight at 50 mg/kg, ip qd after 21 days relative to vehicle-treated control; format: organism-based; parameters: dose 50 mg/kg, route intraperitoneal; settings: in vivo, 504 h
Mus musculus [21] = test: Toxicity in ICR mouse assessed as body weight loss at 50 mg/kg, ip administered on day 1 measured for 10 days relative to vehicle-treated control; format: organism-based; parameters: dose 50 mg/kg, route intraperitoneal; settings: in vivo, 240 h
HCT-116 = test: cells; settings: Homo sapiens, HCT-116, 72 h
MDA-MB-435 = test: cells; settings: Homo sapiens, MDA-MB-435, 72 h
Description: Cytotoxicity against human MDA-MB-435 cells after 72 hrs by MTT assay

Question: COc1ccc(/C=C\c2cc(OC)c(OC)c(OC)c2)cc1O [COMBRETASTATIN A4] was tested. Which Activity (Mus musculus [1]) did it give?
Answer: Non-toxic

Question: And the IC50 (CCRF-CEM)?
Answer: 1 nM

Question: And the Activity (Mus musculus [2])?
Answer: Non-toxic

Question: And the Activity (Mus musculus [3])?
Answer: Non-toxic

Question: What about the T/C (HT-29 [4]) of the same compound?
Answer: 53%

Question: And the T/C (HT-29 [5])?
Answer: 47%

Question: And the Activity (Mus musculus [6])?
Answer: 1.7 g

Question: What about the Activity (Mus musculus [7]) of the same compound?
Answer: 1.8 g

Question: And the Activity (Mus musculus [8])?
Answer: 19.34 ×10³ /mm3

Question: What about the Activity (Mus musculus [9]) of the same compound?
Answer: 12.09 ×10³ /mm3

Question: And the Activity (Mus musculus [10])?
Answer: 10.62 ×10³ /mm3

Question: And the Activity (Mus musculus [11])?
Answer: 4.14 ×10³ /mm3

Question: And the Activity (Mus musculus [12])?
Answer: 1923 ×10³ /mm3

Question: And the Activity (Mus musculus [13])?
Answer: 2206 ×10³ /mm3

Question: And the Activity (Mus musculus [14])?
Answer: 25 IU/L

Question: And the Activity (Mus musculus [15])?
Answer: 66.3 IU/L

Question: What about the Activity (Mus musculus [16]) of the same compound?
Answer: 105.3 IU/L

Question: What about the Activity (Mus musculus [17]) of the same compound?
Answer: 149.3 IU/L

Question: What about the Activity (Mus musculus [18]) of the same compound?
Answer: Toxic

Question: What about the Activity (Mus musculus [19]) of the same compound?
Answer: Toxic

Question: What about the Activity (Mus musculus [20]) of the same compound?
Answer: Toxic

Question: What about the Activity (Mus musculus [21]) of the same compound?
Answer: Toxic

Question: What about the IC50 (HCT-116) of the same compound?
Answer: 1 nM

Question: And the IC50 (MDA-MB-435)?
Answer: 1 nM
